The record followed here is US20240425497A1, “Cbl-b Inhibitors and Methods of Use Thereof” (ARCUS BIOSCIENCES, INC., priority 2023, published 2024).

Structures are written as SMILES.

In one assay the test system is Jurkat cells. Kind of assay: IL-2 secretion assay in CD3/CD28-activated Jurkat cells (AlphaLISA). To be noted: CD3/CD28 activation, 24 h. Type of assay: cell-based, human. Put shortly:
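Jurkat cells in Opti-MEM (50,000/well) preincubated 1 h at 37° C with compound (16-point 1:2 dilution, final 10 μM to […]), then activated with CD3/CD28 T cell activator for 24 h at 37° C. Secreted IL-2 in supernatant quantified by AlphaLISA; EC50 from 4-parameter logistic fit.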

In the next assay the target is Cbl-b (Homo sapiens (Human), UniProt Q13191). Kind of assay: Cbl-b probe displacement HTRF binding assay. The conditions noted are these: 0.4 nM biotinylated Cbl-b, 150 nM BODIPY probe. A digest of the protocol: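 Biotinylated Cbl-b (0.4 nM final) was preincubated 60 min at room temperature with compound (20-point 1:2 series, top 10 μM final), then BODIPY probe (150 nM final) was added for 15 min before streptavidin-terbium cryptate. Buffer was 20 mM Hepes, 150 mM NaCl, 0.01% Triton X-100, 0.5 mM TCEP, 0.01% BSA; IC50 was derived from a four-parameter fit of HTRF signal loss.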
Cbl-b, sequence (Q13191 whole entry, species assumed): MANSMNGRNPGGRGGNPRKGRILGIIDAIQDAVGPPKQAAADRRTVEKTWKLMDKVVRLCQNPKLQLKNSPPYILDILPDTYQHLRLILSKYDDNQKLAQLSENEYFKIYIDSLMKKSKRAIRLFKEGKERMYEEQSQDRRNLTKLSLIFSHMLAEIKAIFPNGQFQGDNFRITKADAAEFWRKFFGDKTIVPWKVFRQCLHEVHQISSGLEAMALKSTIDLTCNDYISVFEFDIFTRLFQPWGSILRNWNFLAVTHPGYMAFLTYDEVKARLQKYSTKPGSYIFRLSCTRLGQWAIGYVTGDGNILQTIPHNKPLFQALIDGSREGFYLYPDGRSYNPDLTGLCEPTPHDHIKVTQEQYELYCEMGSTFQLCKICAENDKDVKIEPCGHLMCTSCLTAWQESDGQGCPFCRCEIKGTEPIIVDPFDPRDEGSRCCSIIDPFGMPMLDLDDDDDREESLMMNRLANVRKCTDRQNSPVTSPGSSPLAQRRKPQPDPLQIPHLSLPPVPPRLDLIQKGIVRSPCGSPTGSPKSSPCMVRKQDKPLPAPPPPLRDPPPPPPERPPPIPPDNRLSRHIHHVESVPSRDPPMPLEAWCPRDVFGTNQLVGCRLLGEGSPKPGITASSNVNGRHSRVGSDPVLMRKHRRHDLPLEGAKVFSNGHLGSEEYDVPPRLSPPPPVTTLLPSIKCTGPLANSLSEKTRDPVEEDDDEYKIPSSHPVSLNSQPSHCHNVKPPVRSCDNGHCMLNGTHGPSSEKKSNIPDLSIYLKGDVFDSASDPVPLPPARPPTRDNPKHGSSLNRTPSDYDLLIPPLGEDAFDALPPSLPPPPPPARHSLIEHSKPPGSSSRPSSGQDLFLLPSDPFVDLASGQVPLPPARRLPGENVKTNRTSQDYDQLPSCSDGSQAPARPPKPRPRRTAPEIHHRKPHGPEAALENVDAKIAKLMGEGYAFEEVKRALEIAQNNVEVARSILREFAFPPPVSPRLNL

With `Cc1cn(-c2cc(-c3ccc(F)cc3C(=O)N3CC(F)C3)cc(C3CC3)n2)c(=O)c2[nH]c([C@@H]3CCCN3)nc12` [Example 50, 5-[6-cyclopropyl-4-[4-fluoro-2-(3-fluoroazetidine-1-carbonyl)phenyl]pyridin-2-yl]-7-methyl-2-[(2S)-pyrrolidin-2-yl]-3H-imidazo[4,5-c]pyridin-4-one], the EC50 in the assay with Jurkat cells (Homo sapiens) was greater than 5000 nM. This compound also gave an IC50 at Cbl-b of 100 to 1000 nM.
`N#Cc1c[nH]c2c(=O)n(-c3cc(-c4ccc(F)cc4C(=O)C4CC(F)C4)cc(C4CC4)n3)cc(C(F)(F)F)c12` (stereo not shown) [Example 51, 6-[6-cyclopropyl-4-[4-fluoro-2-(3-fluorocyclobutanecarbonyl)phenyl]pyridin-2-yl]-7-oxo-4-(trifluoromethyl)-1H-pyrrolo[2,3-c]pyridine-3-carbonitrile] gave an EC50 in the assay with Jurkat cells of 100 to 1000 nM. The compound further returned an IC50 at Cbl-b of less than 100 nM.
For the compound `O=C(c1cc(F)ccc1-c1cc(C2CC2)nc(-n2cc(C(F)(F)F)c3cc(CO)[nH]c3c2=O)c1)C1CC(F)C1` (stereo not shown) [Example 52, 6-[6-cyclopropyl-4-[4-fluoro-2-(3-fluorocyclobutanecarbonyl)phenyl]pyridin-2-yl]-2-(hydroxymethyl)-4-(trifluoromethyl)-1H-pyrrolo[2,3-c]pyridin-7-one], the EC50 with Jurkat cells (Homo sapiens) lay in the range of 100 to 1000 nM. Also, the IC50 on Cbl-b is less than 100 nM.
Turning to `N#Cc1c(CO)[nH]c2c(=O)n(-c3cc(-c4ccc(F)cc4C(=O)C4CC(F)C4)cc(C4CC4)n3)cc(C(F)(F)F)c12` (stereo not shown) [Example 53, 6-[6-cyclopropyl-4-[4-fluoro-2-(3-fluorocyclobutanecarbonyl)phenyl]pyridin-2-yl]-2-(hydroxymethyl)-7-oxo-4-(trifluoromethyl)-1H-pyrrolo[2,3-c]pyridine-3-carbonitrile], the EC50 in the assay with Jurkat cells (Homo sapiens) fell in the range of 100 to 1000 nM. This compound also gave an IC50 on Cbl-b of less than 100 nM.
As for `N#Cc1cn(-c2cc(-c3ccc(F)cc3C(=O)N3CC(F)C3)cc(C3CC3)n2)c(=O)c2[nH]c(CO)cc12` [Example 54, 6-(6-cyclopropyl-4-{4-fluoro-2-[(3-fluoro-1-azetidinyl)carbonyl]phenyl}-2-pyridyl)-2-(hydroxymethyl)-7-oxo-1,6-dihydro-1,6-diaza-4-indenecarbonitrile], the EC50 in the assay with Jurkat cells (Homo sapiens) lay in the range of 100 to 1000 nM. On Cbl-b, this compound had an IC50 of less than 100 nM.
